{
  "source": "patent US12214092B2",
  "about": "“Systems and methods for treating biological fluids” (Cerus Corporation, priority 2017, dated 2025)",
  "key": {"E. coli": {"system": "E. coli", "assay": "Amotosalen and two sequential UV light doses (UVC + UVA) treatment of E. coli in plasma, colony forming unit assay", "format": "cell-based", "conditions": "15 μM amotosalen, titer pre-UV 6.57; for Titer Post-Second: ~3 J/cm^2 each", "protocol": "Additionally, any two or more wavelengths of narrow bandwidth light are evaluated in combination, such as for example, photochemical treatment of a biological fluid using amotosalen and ultraviolet light of a first peak wavelength and ultraviolet light of a second peak wavelength, sequentially or concurrently. More specifically, in one example pathogen inactivation of E. coli (Gram negative) and S. epidermidis (Gram positive) bacteria was evaluated using amotosalen and the device with LEDs of wavelengths described in Example 8. […] The spiked plasma units were divided into control (no amotosalen+UV light) and treatment (with amotosalen) conditions, with amotosalen used at 15 μM concentration. The units were aliquoted into six-well plates (5 mL/well) for illumination. Pre-illumination samples were taken and control bacterial titers determined using standard colony forming unit assay. […] Data for pre-illumination titers, post-first illumination titer, post-second illumination titer, and post-treatment (after second illumination) residual amotosalen (S-59) are shown in the following Tables 40-41."}, "feline calicivirus (FCV)": {"system": "feline calicivirus (FCV)", "conditions": "previously reported (Irsch et al. 2011), 150 μM S-59 with broad spectrum UVA; cited from earlier work"}, "[1]": {"assay": "Plasma parameters pre- and post-illumination, whole-blood derived plasma, 50 μM amotosalen, ~6.4 J/cm^2", "source_text": "This pool and split format was repeated four times to generate four replicates."}},
  "data": [
    {"smiles": "Cc1oc2c(C)c3oc(=O)cc(C)c3cc2c1COCCN", "note": "[S-59, 3-(2-aminoethoxymethyl)-2,5,9-trimethylfuro[3,2-g]chromen-7-one]", "values": [
      {"measurement": "Titer Post-Second", "setting": "E. coli; UV 1 265 nm then UV 2 325 nm", "value": "<−0.11"},
      {"measurement": "Titer Post-Second", "setting": "E. coli; UV 1 265 nm then UV 2 340 nm", "value": "<−0.11"},
      {"measurement": "Titer Post-Second", "setting": "E. coli; UV 1 265 nm then UV 2 365 nm", "value": "<−0.11"},
      {"measurement": "Titer Post-First", "setting": "E. coli; UV 1 265 nm ~3 J/cm^2 (then 325 nm)", "value": 3.58},
      {"measurement": "Titer Post-First", "setting": "E. coli; UV 1 265 nm ~3 J/cm^2 (then 340 nm)", "value": 3.86},
      {"measurement": "Titer Post-First", "setting": "E. coli; UV 1 265 nm ~3 J/cm^2 (then 365 nm)", "value": 2.95},
      {"measurement": "Titer Post-Second", "setting": "E. coli; UV 1 280 nm then UV 2 325 nm", "value": "<−0.11"},
      {"measurement": "Titer Post-Second", "setting": "E. coli; UV 1 280 nm then UV 2 340 nm", "value": "<−0.11"},
      {"measurement": "Titer Post-Second", "setting": "E. coli; UV 1 280 nm then UV 2 365 nm", "value": "<−0.11"},
      {"measurement": "Titer Post-First", "setting": "E. coli; UV 1 280 nm ~3 J/cm^2 (then 325 nm)", "value": 3.66},
      {"measurement": "Titer Post-First", "setting": "E. coli; UV 1 280 nm ~3 J/cm^2 (then 340 nm)", "value": 4.15},
      {"measurement": "Titer Post-First", "setting": "E. coli; UV 1 280 nm ~3 J/cm^2 (then 365 nm)", "value": 4.11},
      {"measurement": "Titer Post-Second", "setting": "E. coli; UV 1 325 nm then UV 2 265 nm", "value": "<−0.11"},
      {"measurement": "Titer Post-Second", "setting": "E. coli; UV 1 325 nm then UV 2 280 nm", "value": "<−0.11"},
      {"measurement": "Titer Post-First", "setting": "E. coli; UV 1 325 nm ~3 J/cm^2 (then 265 nm)", "value": "<−0.11"},
      {"measurement": "Titer Post-First", "setting": "E. coli; UV 1 325 nm ~3 J/cm^2 (then 280 nm)", "value": "<−0.11"},
      {"measurement": "Titer Post-Second", "setting": "E. coli; UV 1 340 nm then UV 2 265 nm", "value": "<−0.11"},
      {"measurement": "Titer Post-Second", "setting": "E. coli; UV 1 340 nm then UV 2 280 nm", "value": "<−0.11"},
      {"measurement": "Titer Post-First", "setting": "E. coli; UV 1 340 nm ~3 J/cm^2 (then 265 nm)", "value": "<−0.11"},
      {"measurement": "Titer Post-First", "setting": "E. coli; UV 1 340 nm ~3 J/cm^2 (then 280 nm)", "value": "<−0.11"},
      {"measurement": "Titer Post-Second", "setting": "E. coli; UV 1 365 nm then UV 2 265 nm", "value": "<−0.11"},
      {"measurement": "Titer Post-Second", "setting": "E. coli; UV 1 365 nm then UV 2 280 nm", "value": "<−0.11"},
      {"measurement": "Titer Post-First", "setting": "E. coli; UV 1 365 nm ~3 J/cm^2 (then 265 nm)", "value": "<−0.11"},
      {"measurement": "Titer Post-First", "setting": "E. coli; UV 1 365 nm ~3 J/cm^2 (then 280 nm)", "value": "<−0.11"},
      {"measurement": "reduction in titer of caliciviruses (FCV)", "setting": "feline calicivirus (FCV)", "value": "1.7-2.4 log 10"},
      {"measurement": "Factor II", "setting": "[1]; 340 nm, Post-UVA", "value": 84.00, "unit": "IU/dL"},
      {"measurement": "Factor V", "setting": "[1]; 340 nm, Post-UVA", "value": 88.83, "unit": "IU/dL"},
      {"measurement": "Factor VIII", "setting": "[1]; 340 nm, Post-UVA", "value": 127.18, "unit": "IU/dL"},
      {"measurement": "Factor X", "setting": "[1]; 340 nm, Post-UVA", "value": 84.68, "unit": "IU/dL"},
      {"measurement": "Factor XI", "setting": "[1]; 340 nm, Post-UVA", "value": 73.93, "unit": "IU/dL"},
      {"measurement": "Fibrinogen", "setting": "[1]; 340 nm, Post-UVA", "value": 259.75, "unit": "mg/dL"},
      {"measurement": "PT", "setting": "[1]; 340 nm, Post-UVA", "value": 12.03, "unit": "s"},
      {"measurement": "Protein C", "setting": "[1]; 340 nm, Post-UVA", "value": 122.33, "unit": "IU/dL"},
      {"measurement": "Protein S", "setting": "[1]; 340 nm, Post-UVA", "value": 118.03, "unit": "IU/dL"},
      {"measurement": "Total Protein", "setting": "[1]; 340 nm, Post-UVA", "value": 72.43, "unit": "mg/mL"},
      {"measurement": "aPTT", "setting": "[1]; 340 nm, Post-UVA", "value": 33.95, "unit": "s"},
      {"measurement": "pCO2 @ 37° C.", "setting": "[1]; 340 nm, Post-UVA", "value": 66.75, "unit": "mmHg"},
      {"measurement": "pH @ 37° C.", "setting": "[1]; 340 nm, Post-UVA", "value": 7.20},
      {"measurement": "pO2 @ 37° C.", "setting": "[1]; 340 nm, Post-UVA", "value": 42.88, "unit": "mmHg"},
      {"measurement": "Factor II", "setting": "[1]; 340 nm, Pre-UVA", "value": 93.43, "unit": "IU/dL"},
      {"measurement": "Factor V", "setting": "[1]; 340 nm, Pre-UVA", "value": 97.08, "unit": "IU/dL"},
      {"measurement": "Factor VIII", "setting": "[1]; 340 nm, Pre-UVA", "value": 165.50, "unit": "IU/dL"},
      {"measurement": "Factor X", "setting": "[1]; 340 nm, Pre-UVA", "value": 96.68, "unit": "IU/dL"},
      {"measurement": "Factor XI", "setting": "[1]; 340 nm, Pre-UVA", "value": 85.65, "unit": "IU/dL"},
      {"measurement": "Fibrinogen", "setting": "[1]; 340 nm, Pre-UVA", "value": 290.00, "unit": "mg/dL"},
      {"measurement": "PT", "setting": "[1]; 340 nm, Pre-UVA", "value": 11.68, "unit": "s"},
      {"measurement": "Protein C", "setting": "[1]; 340 nm, Pre-UVA", "value": 133.90, "unit": "IU/dL"},
      {"measurement": "Protein S", "setting": "[1]; 340 nm, Pre-UVA", "value": 119.00, "unit": "IU/dL"},
      {"measurement": "Total Protein", "setting": "[1]; 340 nm, Pre-UVA", "value": 72.13, "unit": "mg/mL"},
      {"measurement": "aPTT", "setting": "[1]; 340 nm, Pre-UVA", "value": 31.15, "unit": "s"},
      {"measurement": "pCO2 @ 37° C.", "setting": "[1]; 340 nm, Pre-UVA", "value": 67.38, "unit": "mmHg"},
      {"measurement": "pH @ 37° C.", "setting": "[1]; 340 nm, Pre-UVA", "value": 7.19},
      {"measurement": "pO2 @ 37° C.", "setting": "[1]; 340 nm, Pre-UVA", "value": 131.80, "unit": "mmHg"},
      {"measurement": "Factor II", "setting": "[1]; INT-100, Post-UVA", "value": 110.93, "unit": "IU/dL"},
      {"measurement": "Factor V", "setting": "[1]; INT-100, Post-UVA", "value": 90.25, "unit": "IU/dL"},
      {"measurement": "Factor VIII", "setting": "[1]; INT-100, Post-UVA", "value": 108.85, "unit": "IU/dL"},
      {"measurement": "Factor X", "setting": "[1]; INT-100, Post-UVA", "value": 84.53, "unit": "IU/dL"},
      {"measurement": "Factor XI", "setting": "[1]; INT-100, Post-UVA", "value": 76.63, "unit": "IU/dL"},
      {"measurement": "Fibrinogen", "setting": "[1]; INT-100, Post-UVA", "value": 261.50, "unit": "mg/dL"},
      {"measurement": "PT", "setting": "[1]; INT-100, Post-UVA", "value": 12.28, "unit": "s"},
      {"measurement": "Protein C", "setting": "[1]; INT-100, Post-UVA", "value": 109.30, "unit": "IU/dL"},
      {"measurement": "Protein S", "setting": "[1]; INT-100, Post-UVA", "value": 121.80, "unit": "IU/dL"},
      {"measurement": "Total Protein", "setting": "[1]; INT-100, Post-UVA", "value": 70.35, "unit": "mg/mL"},
      {"measurement": "aPTT", "setting": "[1]; INT-100, Post-UVA", "value": 33.98, "unit": "s"},
      {"measurement": "pCO2 @ 37° C.", "setting": "[1]; INT-100, Post-UVA", "value": 60.68, "unit": "mmHg"},
      {"measurement": "pH @ 37° C.", "setting": "[1]; INT-100, Post-UVA", "value": 7.24},
      {"measurement": "pO2 @ 37° C.", "setting": "[1]; INT-100, Post-UVA", "value": 41.55, "unit": "mmHg"},
      {"measurement": "Factor II", "setting": "[1]; INT-100, Pre-UVA", "value": 91.45, "unit": "IU/dL"},
      {"measurement": "Factor V", "setting": "[1]; INT-100, Pre-UVA", "value": 98.55, "unit": "IU/dL"},
      {"measurement": "Factor VIII", "setting": "[1]; INT-100, Pre-UVA", "value": 154.25, "unit": "IU/dL"},
      {"measurement": "Factor X", "setting": "[1]; INT-100, Pre-UVA", "value": 92.40, "unit": "IU/dL"},
      {"measurement": "Factor XI", "setting": "[1]; INT-100, Pre-UVA", "value": 89.55, "unit": "IU/dL"},
      {"measurement": "Fibrinogen", "setting": "[1]; INT-100, Pre-UVA", "value": 278.75, "unit": "mg/dL"},
      {"measurement": "PT", "setting": "[1]; INT-100, Pre-UVA", "value": 11.48, "unit": "s"},
      {"measurement": "Protein C", "setting": "[1]; INT-100, Pre-UVA", "value": 98.55, "unit": "IU/dL"},
      {"measurement": "Protein S", "setting": "[1]; INT-100, Pre-UVA", "value": 111.88, "unit": "IU/dL"},
      {"measurement": "Total Protein", "setting": "[1]; INT-100, Pre-UVA", "value": 80.18, "unit": "mg/mL"},
      {"measurement": "aPTT", "setting": "[1]; INT-100, Pre-UVA", "value": 30.35, "unit": "s"},
      {"measurement": "pCO2 @ 37° C.", "setting": "[1]; INT-100, Pre-UVA", "value": 69.20, "unit": "mmHg"},
      {"measurement": "pH @ 37° C.", "setting": "[1]; INT-100, Pre-UVA", "value": 7.22},
      {"measurement": "pO2 @ 37° C.", "setting": "[1]; INT-100, Pre-UVA", "value": 141.95, "unit": "mmHg"}
    ]}
  ]
}
